In ChEMBL document CHEMBL1201862, “PubChem BioAssay data set” (2004):
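Each compound was tested at five concentrations against cells in 96-well plates for 48 hours. GI50 is the concentration that inhibits growth by half.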 Active and inactive are the calls of the source. Cut-off read from the data, not from the text of the source: active = GI50 up to about 1.1 µM and inactive = higher.

Legend:
Assay in all cases: NCI tumour cell line growth inhibition, 48 h
[1] = system: NCI/ADR-RES
[2] = system: A549
[3] = system: SW-620
[4] = system: ACHN
[5] = system: K562
[6] = system: CCRF-CEM
[7] = system: Hs-578T
[8] = system: 786-0
[9] = system: KM12
[10] = system: LOX IMVI
[11] = system: OVCAR-4
[12] = system: RPMI-8226
[13] = system: UACC-257
[14] = system: SK-MEL-2
[15] = system: SK-MEL-28
[16] = system: SF-295
[17] = system: MDA-MB-231
[18] = system: HCT-15
[19] = system: UO-31
[20] = system: HOP-92
[21] = system: SR
[22] = system: RXF 393
[23] = system: NCI-H460
[24] = system: UACC-62
[25] = system: OVCAR-5
[26] = system: U-251
[27] = system: CAKI-1
[28] = system: HCT-116
[29] = system: HL-60
[30] = system: PC-3
[31] = system: MDA-N
[32] = system: HCC 2998
[33] = system: SK-MEL-5
[34] = system: SNB-75
[35] = system: COLO 205
[36] = system: MCF7
[37] = system: HOP-62
[38] = system: M14
[39] = system: OVCAR-3
[40] = system: SF-268
[41] = system: MDA-MB-435
[42] = system: NCI-H23
[43] = system: DU-145
[44] = system: A498
[45] = system: T47D
[46] = system: SK-OV-3
[47] = system: SNB-19
[48] = system: MOLT-4
[49] = system: SN12C
[50] = system: TK-10
[51] = system: NCI-H226
[52] = system: IGROV-1
[53] = system: EKVX
[54] = system: SF-539
[55] = system: OVCAR-8
[56] = system: NCI-H522

CN1C(=O)C(CC=O)(C(C)(C)C)c2ccccc21 (stereo unspecified)
GI50 [1]: > 100 µM (inactive)
GI50 [2]: > 100 µM (inactive)
GI50 [3]: 79.6 µM (inactive)
GI50 [4]: 47.2 µM (inactive)
GI50 [5]: 91.6 µM (inactive)
GI50 [6]: 60 µM (inactive)
GI50 [7]: 56.6 µM (inactive)
GI50 [8]: 41.8 µM (inactive)
GI50 [9]: > 100 µM (inactive)
GI50 [10]: 37.8 µM (inactive)
GI50 [11]: > 100 µM (inactive)
GI50 [12]: 37.9 µM (inactive)
GI50 [13]: > 100 µM (inactive)
GI50 [14]: > 100 µM (inactive)
GI50 [15]: > 100 µM (inactive)
GI50 [16]: > 100 µM (inactive)
GI50 [17]: > 100 µM (inactive)
GI50 [18]: 90.6 µM
GI50 [19]: 64 µM (inactive)
GI50 [20]: 69 µM (inactive)
GI50 [21]: > 100 µM (inactive)
GI50 [22]: > 100 µM (inactive)
GI50 [23]: > 100 µM (inactive)
GI50 [24]: 93.5 µM (inactive)
GI50 [25]: > 100 µM (inactive)
GI50 [26]: > 100 µM (inactive)
GI50 [27]: 54.7 µM (inactive)
GI50 [28]: 76.4 µM (inactive)
GI50 [29]: > 100 µM (inactive)
GI50 [30]: > 100 µM (inactive)
GI50 [31]: 33.3 µM (inactive)
GI50 [32]: > 100 µM (inactive)
GI50 [33]: > 100 µM (inactive)
GI50 [34]: 99.5 µM (inactive)
GI50 [35]: > 100 µM (inactive)
GI50 [36]: 69.7 µM (inactive)
GI50 [37]: > 100 µM (inactive)
GI50 [38]: > 100 µM (inactive)
GI50 [39]: > 100 µM (inactive)
GI50 [40]: > 100 µM (inactive)
GI50 [41]: 30.8 µM (inactive)
GI50 [42]: > 100 µM (inactive)
GI50 [43]: 56.4 µM (inactive)
GI50 [44]: > 100 µM (inactive)
GI50 [45]: 47.1 µM (inactive)
GI50 [46]: > 100 µM (inactive)
GI50 [47]: > 100 µM (inactive)
GI50 [48]: 56.8 µM (inactive)
GI50 [49]: > 100 µM (inactive)

CN1C/C(=C\c2ccccc2[N+](=O)[O-])C(=O)/C(=C/c2ccccc2[N+](=O)[O-])C1
GI50 [1]: 1.55 µM (inactive)
GI50 [2]: 3.43 µM (inactive)
GI50 [3]: 0.173 µM (active)
GI50 [8]: 0.192 µM (active)
GI50 [9]: 1.24 µM (inactive)
GI50 [50]: 0.893 µM (active)
GI50 [14]: 2.09 µM (inactive)
GI50 [18]: 0.251 µM
GI50 [19]: 0.373 µM (active)
GI50 [20]: 1.09 µM (active)
GI50 [23]: 2.57 µM (inactive)
GI50 [24]: 1.31 µM (inactive)
GI50 [26]: 1.7 µM (inactive)
GI50 [51]: 3.09 µM (inactive)
GI50 [28]: 0.215 µM (active)
GI50 [29]: 0.0796 µM (active)
GI50 [30]: 1.14 µM (inactive)
GI50 [52]: 0.442 µM (active)
GI50 [32]: 1.45 µM (inactive)
GI50 [33]: 1.32 µM (inactive)
GI50 [34]: 1.86 µM (inactive)
GI50 [35]: 0.164 µM (active)
GI50 [36]: 0.408 µM (active)
GI50 [37]: 2.95 µM (inactive)
GI50 [43]: 1.51 µM (inactive)
GI50 [44]: 1.93 µM (inactive)
GI50 [46]: 2.75 µM (inactive)
GI50 [47]: 6.1 µM (inactive)
GI50 [48]: 0.192 µM (active)

CC(=C/c1ccccc1)/C=C1/NC(=S)N(/C=C2\C(=O)Oc3ccccc3C2=O)C1=O
GI50 [1]: 42.2 µM (inactive)
GI50 [2]: 42.2 µM (inactive)
GI50 [4]: 46 µM (inactive)
GI50 [5]: 39.6 µM (inactive)
GI50 [53]: 27.9 µM (inactive)
GI50 [54]: 96.6 µM (inactive)
GI50 [6]: 33.8 µM (inactive)
GI50 [9]: 27.5 µM (inactive)
GI50 [10]: 53.5 µM (inactive)
GI50 [11]: 34.9 µM (inactive)
GI50 [55]: 52.4 µM (inactive)
GI50 [12]: 26.6 µM (inactive)
GI50 [50]: 40.7 µM (inactive)
GI50 [13]: 66.7 µM (inactive)
GI50 [14]: > 100 µM (inactive)
GI50 [15]: 52.1 µM (inactive)
GI50 [16]: > 100 µM (inactive)
GI50 [17]: 45.9 µM (inactive)
GI50 [18]: 45.7 µM
GI50 [20]: 7.78 µM (inactive)
GI50 [21]: 38.1 µM (inactive)
GI50 [22]: 0.0664 µM (active)
GI50 [23]: 30.5 µM (inactive)
GI50 [25]: > 100 µM (inactive)
GI50 [26]: 41.3 µM (inactive)
GI50 [51]: 67.9 µM (inactive)
GI50 [28]: 41.9 µM (inactive)
GI50 [29]: 25.8 µM (inactive)
GI50 [30]: 96.6 µM (inactive)
GI50 [31]: 96.6 µM (inactive)
GI50 [56]: 22.7 µM (inactive)
GI50 [32]: 58.1 µM (inactive)
GI50 [33]: 25.6 µM (inactive)
GI50 [34]: > 100 µM (inactive)
GI50 [35]: 36.7 µM (inactive)
GI50 [36]: 39.7 µM (inactive)
GI50 [37]: 83.2 µM (inactive)
GI50 [38]: 54 µM (inactive)
GI50 [39]: 38.3 µM (inactive)
GI50 [40]: 53.6 µM (inactive)
GI50 [41]: 45.1 µM (inactive)
GI50 [42]: 41.6 µM (inactive)
GI50 [43]: 45.8 µM (inactive)
GI50 [44]: 56.4 µM (inactive)
GI50 [45]: 1.76 µM (inactive)
GI50 [47]: 65.6 µM (inactive)
GI50 [48]: 38.1 µM (inactive)
GI50 [49]: 98.6 µM (inactive)
